Structures can show the parent of a compound that is named as a salt. Where two headings read alike, the source gives them in different places.
Legend:
human NTCP [1] = molecular target: T1, human NTCP (Homo sapiens, UniProt Q14973); test: Screening taurocholate uptake assay (96-well, [14C]taurocholate, 10 µM drug)
T1 sequence (Q14973 1-349): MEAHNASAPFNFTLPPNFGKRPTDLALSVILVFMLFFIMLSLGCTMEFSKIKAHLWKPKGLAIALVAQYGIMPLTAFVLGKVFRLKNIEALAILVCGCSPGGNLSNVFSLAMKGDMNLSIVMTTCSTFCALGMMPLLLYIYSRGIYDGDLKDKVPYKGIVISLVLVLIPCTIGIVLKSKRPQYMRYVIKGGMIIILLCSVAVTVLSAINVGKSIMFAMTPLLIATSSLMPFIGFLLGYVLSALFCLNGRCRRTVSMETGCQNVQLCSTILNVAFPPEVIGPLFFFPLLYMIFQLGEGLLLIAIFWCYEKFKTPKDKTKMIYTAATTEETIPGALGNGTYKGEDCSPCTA

human NTCP [2] = molecular target: T1, human NTCP; test: Screening fluorescent competitive Myrcludex B-FITC binding assay (96-well, 10 µM drug)
[3] = Prestwick library screen, 10 µM drug, B-score of taurocholate uptake
[4] = combined ranking from functional and binding assay B-scores
[5] = Prestwick library screen, 10 µM drug, B-score of Myrcludex B-FITC binding
[6] = Prestwick library screen, taurocholate uptake, 10 µM drug
[7] = ranking score beside the functional and binding assay B-scores of the screen
[8] = Prestwick library screen, Myrcludex B-FITC binding, 10 µM drug
[9] = combined ranking from functional and binding screening assays
[10] = screen, 10 µM drug, taurocholate uptake
[11] = screen, 10 µM drug, Myrcludex B-FITC binding

Compound	B-score functional assay (human NTCP [1]; [3])	Ranking score (human NTCP [1]; [4])	B-score binding assay (human NTCP [2]; [5])	Ranking score (human NTCP [1]; [9])	B-score functional assay (human NTCP [1]; [10])	B-score binding assay (human NTCP [2]; [11])	also measured
CCCCNc1ccc(C(=O)OCCN(C)C)cc1.Cl [Tetracaïne hydrochloride]	0.799	1118.05	2.591	–	–	–	–
CN(C)[C@@H]1C(O)=C(C(N)=O)C(=O)[C@@]2(O)C(O)=C3C(=O)c4c(O)cccc4[C@@](C)(O)[C@H]3C[C@@H]12 [Tetracycline hydrochloride]	–	–	–	–	–	–	B-score functional assay (human NTCP [1]; [6]): 0.067; Ranking score (human NTCP [1]; [7]): 755.57; B-score binding assay (human NTCP [2]; [8]): 0.201
c1ccc2c(c1)CCCC2C1=NCCN1 (stereo not drawn) [Tetrahydrozoline hydrochloride]	0.112	952.65	1.943	–	–	–	–
O=C1CCC(N2C(=O)c3ccccc3C2=O)C(=O)N1 (stereo not drawn) [Thalidomide]	0.111	964.883	2.398	–	–	–	–
Cn1c(=O)c2[nH]cnc2n(C)c1=O [Theophylline monohydrate]	–	–	–	321.683	-1.998	0.205	–
Cc1ncc(C[n+]2csc(CCO)c2C)c(N)n1 [Thiamine hydrochloride]	–	–	–	–	–	–	B-score functional assay (human NTCP [1]; [6]): 1.872; Ranking score (human NTCP [1]; [7]): 830.8; B-score binding assay (human NTCP [2]; [8]): -0.051
CCSc1ccc2c(c1)N(CCCN1CCN(C)CC1)c1ccccc1S2.O=C(O)CC(O)C(=O)O.O=C(O)CC(O)C(=O)O [Thiethylperazine dimalate]	0.623	1093.79	3.252	–	–	–	–
Nc1nc(=S)c2ncn([C@@H]3O[C@H](CO)[C@@H](O)[C@H]3O)c2[nH]1 [Thioguanosine]	–	–	–	366.332	-0.426	-0.655	–
S=C(NC1CCCCC1)N1CCC(c2cnc[nH]2)CC1 [Thioperamide maleate]	–	–	–	451.504	-0.893	0.108	–
CN1CCN(CCCN2c3ccccc3Sc3ccc(S(=O)(=O)N(C)C)cc32)CC1.CS(=O)(=O)O.CS(=O)(=O)O [Thioproperazine dimesylate]	0.683	1068.06	1.771	–	–	–	–
O=C(O)CNC(=O)C(CS)Cc1ccccc1 (stereo not drawn) [Thiorphan]	0.09	959.982	2.652	–	–	–	–
N[C@@H](Cc1cc(I)c(Oc2cc(I)c(O)c(I)c2)c(I)c1)C(=O)O [Thyroxine (L)]	–	–	–	435.061	0.005	-0.765	–
c1ccc2[nH]c(-c3cscn3)nc2c1 [Tiabendazole]	0.849	925.084	0.306	–	–	–	–
CCN(CC)CCNC(=O)c1cc(S(C)(=O)=O)ccc1OC [Tiapride hydrochloride]	1.625	1010.78	0.4	–	–	–	–
CC(C(=O)O)c1ccc(C(=O)c2ccccc2)s1 (stereo not drawn) [Tiaprofenic acid]	0.836	1082.46	1.57	–	–	–	–
C#C[C@]1(O)CC[C@H]2[C@@H]3[C@H](C)CC4=C(CCC(=O)C4)[C@H]3CC[C@@]21C [Tibolone]	0.613	930.923	0.535	–	–	–	–
CC(C)(C)NC[C@H](O)COc1nsnc1N1CCOCC1.O=C(O)/C=C\C(=O)O [Timolol maleate salt]	1.166	1052.08	0.866	–	–	–	–
Clc1ccc2nsnc2c1NC1=NCCN1 [Tizanidine HCl]	–	–	–	334.885	-0.107	-1.169	–
Cc1cccc(C)c1NC(=O)C(C)N (stereo not drawn) [Tocainide hydrochloride]	1.054	1036.23	0.83	–	–	–	–
c1ccc(CC2=NCCN2)cc1 [Tolazoline hydrochloride]	4.096	929.251	0.03	–	–	–	–
CCCCNC(=O)NS(=O)(=O)c1ccc(C)cc1 [Tolbutamide]	–	–	–	448.765	0.082	-0.855	–
Cc1ccc(C(=O)c2cc(O)c(O)c([N+](=O)[O-])c2)cc1 [Tolcapone]	–	–	–	424.338	-1.594	1.049	–
Cc1ccc(C(=O)c2ccc(CC(=O)O)n2C)cc1 [Tolmetin sodium salt dihydrate]	0.203	996.915	2.458	–	–	–	–

Compound	B-score functional assay (human NTCP [1]; [3])	Ranking score (human NTCP [1]; [4])	B-score binding assay (human NTCP [2]; [5])	Ranking score (human NTCP [1]; [9])	B-score functional assay (human NTCP [1]; [10])	B-score binding assay (human NTCP [2]; [11])	also measured
Cc1ccc(O)c([C@H](CCN(C(C)C)C(C)C)c2ccccc2)c1 [Tolterodine tartrate]	–	–	–	–	–	–	B-score functional assay (human NTCP [1]; [6]): 0.018; Ranking score (human NTCP [1]; [7]): 673.446; B-score binding assay (human NTCP [2]; [8]): 0.032
CC1(C)O[C@@H]2[C@@H](CO[C@@]3(COS(N)(=O)=O)OC(C)(C)O[C@@H]23)O1 [Topiramate]	–	–	–	–	–	–	B-score functional assay (human NTCP [1]; [6]): 1.004; Ranking score (human NTCP [1]; [7]): 700.689; B-score binding assay (human NTCP [2]; [8]): -0.268
CC[C@@]1(O)C(=O)OCc2c1cc1n(c2=O)Cc2cc3c(CN(C)C)c(O)ccc3nc2-1 [Topotecan]	–	–	–	–	–	–	B-score functional assay (human NTCP [1]; [6]): 0.858; Ranking score (human NTCP [1]; [7]): 819.148; B-score binding assay (human NTCP [2]; [8]): 0.007
Cl.NC1CCN(c2nc3c(cc2F)c(=O)c(C(=O)O)cn3-c2ccc(F)cc2F)C1 (stereo not drawn) [Tosufloxacin hydrochloride]	–	–	–	–	–	–	B-score functional assay (human NTCP [1]; [6]): 0.009; Ranking score (human NTCP [1]; [7]): 746.768; B-score binding assay (human NTCP [2]; [8]): 0.338
COc1cccc(C2(O)CCCCC2CN(C)C)c1.Cl (stereo not drawn) [Tramadol hydrochloride]	–	–	–	410.66	0.906	-1.463	–
N[C@@H]1C[C@H]1c1ccccc1 [Tranylcypromine hydrochloride]	–	–	–	–	–	–	B-score functional assay (human NTCP [1]): 0.857; Ranking score (human NTCP [1]): 1041.86; B-score binding assay (human NTCP [2]): 1.095
O=c1n(CCCN2CCN(c3cccc(Cl)c3)CC2)nc2ccccn12 [Trazodone hydrochloride]	–	–	–	–	–	–	B-score functional assay (human NTCP [1]; [6]): 0.169; Ranking score (human NTCP [1]; [7]): 707.824; B-score binding assay (human NTCP [2]; [8]): -0.001
C(#CCN1CCCC1)CN1CCCC1.Cl.Cl [Tremorine dihydrochloride]	–	–	–	382.832	-2.034	1.525	–
C[C@]12C=CC(=O)C=C1CC[C@H]1[C@@H]3C[C@@H](O)[C@](O)(C(=O)CO)[C@@]3(C)C[C@H](O)[C@@]12F [Triamcinolone]	–	–	–	–	–	–	B-score functional assay (human NTCP [1]; [6]): 1.923; Ranking score (human NTCP [1]; [7]): 735.139; B-score binding assay (human NTCP [2]; [8]): -0.283
Nc1nc(N)c2nc(-c3ccccc3)c(N)nc2n1 [Triamterene]	–	–	–	–	–	–	B-score functional assay (human NTCP [1]; [6]): 0.708; Ranking score (human NTCP [1]; [7]): 725.193; B-score binding assay (human NTCP [2]; [8]): -0.121
CCOC1O[C@H]([C@@H](COCc2ccccc2)OCc2ccccc2)[C@H](OCc2ccccc2)[C@H]1O (stereo partly drawn) [Tribenoside]	–	–	–	300.985	-1.789	-0.023	–
COP(=O)(OC)C(O)C(Cl)(Cl)Cl (stereo not drawn) [Trichlorfon]	–	–	–	431.184	-0.853	0.016	–
NS(=O)(=O)c1cc2c(cc1Cl)NC(C(Cl)Cl)NS2(=O)=O (stereo not drawn) [Trichlormethiazide]	0.593	921.314	0.486	–	–	–	–
CN1CCN(CCCN2c3ccccc3Sc3ccc(C(F)(F)F)cc32)CC1 [Trifluoperazine dihydrochloride]	–	–	–	–	–	–	B-score functional assay (human NTCP [1]; [6]): 0.212; Ranking score (human NTCP [1]; [7]): 714.92; B-score binding assay (human NTCP [2]; [8]): -0.002
CN(C)CCCN1c2ccccc2Sc2ccc(C(F)(F)F)cc21 [Triflupromazine hydrochloride]	–	–	–	447.888	-0.264	-0.314	–
O=c1[nH]c(=O)n([C@H]2C[C@H](O)[C@@H](CO)O2)cc1C(F)(F)F [Trifluridine]	0.173	994.589	2.847	–	–	–	–
CC(=O)Oc1cc(C(F)(F)F)ccc1C(=O)O [Triflusal]	–	–	–	440.15	-0.747	-0.002	–
CC(CN(C)C)CN1c2ccccc2Sc2ccccc21.CC(CN(C)C)CN1c2ccccc2Sc2ccccc21.O=C(O)C(O)C(O)C(=O)O (stereo not drawn) [Trimeprazine tartrate]	–	–	–	352.65	-0.375	-0.763	–
COc1ccc(CN2CCNCC2)c(OC)c1OC [Trimetazidine dihydrochloride]	–	–	–	350.668	0.211	-1.545	–
CN1C(=O)OC(C)(C)C1=O [Trimethadione]	1.466	860.791	0.001	–	–	–	–
COc1cc(C(=O)N2CCOCC2)cc(OC)c1OC [Trimetozine]	0.651	925.93	0.441	–	–	–	–
Cc1cc2cc3c(C)cc(=O)oc3c(C)c2o1 [Trioxsalen]	0.56	1035.49	1.537	–	–	–	–
